Measured values as given in US12630796B2, “System, device, and method for single-cell encapsulation and culture” (UNIVERSITY OF MARYLAND, COLLEGE PARK, priority 2020, dated 2026).
Counter-ions that a name gives are not always drawn.

System: 1csc colony cells obtained from MDA-MB-231 cells
Assay: In vitro cell viability after drug treatment (CCK-8)
Type: cell-based, human
Settings: 1csc colony cells versus cells from 2Dcells, Ucells and Mcells cultures; 24 hours treatment; FIG. 6A-6B
Protocol: For 2Dcells culture, human MDA-MB-231, MCF-7, PC-3, and OVCAR-8 cancer cells were cultured in Corning (Lowell, MA, USA) T75 flasks in DMEM, EMEM, F12K, and RPMI-1640 medium supplemented with 10% FBS and 1% penicillin/streptomycin at 37° C. in a humidified 5% CO2 incubator, respectively. For Ucells culture, cells were cultured in Corning (Lowell, MA, USA) 6-well ultralow attachment plate (ULAP) at a density of 20,000 cells ml^−1 in CSC medium consisting of serum-free DMEM/F12 supplemented with 5 μg ml^−1 insulin, 20 ng ml^−1 epidermal growth factor (EGF), 20 ng ml^−1 basic fibroblast growth factor (bFGF), 1×B27 (Invitrogen, Carlsbad, CA, USA), 0.4% (w v^−1) bovine serum albumin, 100 U ml^−1 penicillin, and 100 μg ml^−1 streptomycin. The cell spheroids or aggregates were collected after 7 days for further experiments. For lcsc and Mcells cultures, microcapsules encapsulated with one (for 1csc) or multiple (for Mcells) cells were cultured in the aforementioned CSC medium. To determine viability of cells under 2Dcells culture, cells were transferred into 96-well plates first. […] The cell viability was then evaluated using the CCK-8 cell proliferation reagent per the manufacturer's instructions. Cell viability was calculated as the ratio of the cell number determined for each group with a treatment to that of control group with no treatment.

SMILES | resistance of the 1csc colony cells to the drug (cell viability)
CCc1c2c(nc3ccc(OC(=O)N4CCC(N5CCCCC5)CC4)cc13)-c1cc3c(c(=O)n1C2)COC(=O)[C@]3(O)CC [CPT-11, Irinotecan/camptothecin-11] | significantly more resistant
COc1cccc2c1C(=O)c1c(O)c3c(c(O)c1C2=O)C[C@@](O)(C(=O)CO)C[C@@H]3O[C@H]1C[C@H](N)[C@H](O)[C@H](C)O1 [DOX, Doxorubicin hydrochloride] | significantly more resistant
